Measured values from patent US20120028931A1, “HETEROCYCLIC M-GLU5 ANTAGONISTS” (RECORDATI IRELAND LIMITED, priority 2009, published 2012).

Key:
[1] = system: conscious rats; experiment: Cystometry in conscious rats; assay type: in vivo, rat; conditions: administered orally
Procedure: Male Sprague-Dawley rats [Crl: CD® (SD) IGS BR] of 300-400 g b.w. supplied by Charles River Italia were used. The animals were housed with free access to food and water and maintained on a forced 12-hour-light/12-hour-dark cycle at 22-24° C. of temperature, except during the experiment. To quantify urodynamic parameters in conscious rats, cystometrographic studies were performed according to the procedure previously reported (Guarneri et al., Pharmacol. Res. 24: 175, 1991).
Briefly, the rats were anaesthetised by intraperitoneal administration of 3 ml/kg of Equithensin solution (pentobarbital 30 mg/kg and chloral hydrate 125 mg/kg) and placed in a supine position. […]
On the day of the experiment, the rats were placed in modified Bollman cages, i.e., restraining cages that were large enough to permit the rats to adopt a normal crouched posture, but narrow enough to prevent turning around. […] The intraluminal-pressure signal during infusion of saline into the bladder (cystometrogram) was continuously recorded on a polygraph (Rectigraph-8K San-ei with BM614/2 amplifier from Biomedica Mangoni) or stored on PC by data acquisition system (PowerLab, Chart 4 software, AD Instruments). From the cystometrogram, bladder volume capacity (BVC) was evaluated. […] Basal BVC value was evaluated as the mean of the values observed in the cystometrograms recorded in an initial period of 30-60 minutes. […]

[2] = target: T1, mGlu5 receptor (Rattus norvegicus, UniProt P31424); experiment: Radioligand binding assay at metabotropic glutamate receptor 5 in rat brain ([3H]MPEP); conditions: rat forebrain membranes, 4 nM [3H]MPEP; Ki from IC50 by Cheng & Prusoff; read-out: affinity (Ki) for mGlu5 receptor
T1 construct: from tissue; host or cells: forebrain (cortex, striatum and hippocampus) membranes of male Sprague Dawley rats
T1 sequence (P31424 21-1203): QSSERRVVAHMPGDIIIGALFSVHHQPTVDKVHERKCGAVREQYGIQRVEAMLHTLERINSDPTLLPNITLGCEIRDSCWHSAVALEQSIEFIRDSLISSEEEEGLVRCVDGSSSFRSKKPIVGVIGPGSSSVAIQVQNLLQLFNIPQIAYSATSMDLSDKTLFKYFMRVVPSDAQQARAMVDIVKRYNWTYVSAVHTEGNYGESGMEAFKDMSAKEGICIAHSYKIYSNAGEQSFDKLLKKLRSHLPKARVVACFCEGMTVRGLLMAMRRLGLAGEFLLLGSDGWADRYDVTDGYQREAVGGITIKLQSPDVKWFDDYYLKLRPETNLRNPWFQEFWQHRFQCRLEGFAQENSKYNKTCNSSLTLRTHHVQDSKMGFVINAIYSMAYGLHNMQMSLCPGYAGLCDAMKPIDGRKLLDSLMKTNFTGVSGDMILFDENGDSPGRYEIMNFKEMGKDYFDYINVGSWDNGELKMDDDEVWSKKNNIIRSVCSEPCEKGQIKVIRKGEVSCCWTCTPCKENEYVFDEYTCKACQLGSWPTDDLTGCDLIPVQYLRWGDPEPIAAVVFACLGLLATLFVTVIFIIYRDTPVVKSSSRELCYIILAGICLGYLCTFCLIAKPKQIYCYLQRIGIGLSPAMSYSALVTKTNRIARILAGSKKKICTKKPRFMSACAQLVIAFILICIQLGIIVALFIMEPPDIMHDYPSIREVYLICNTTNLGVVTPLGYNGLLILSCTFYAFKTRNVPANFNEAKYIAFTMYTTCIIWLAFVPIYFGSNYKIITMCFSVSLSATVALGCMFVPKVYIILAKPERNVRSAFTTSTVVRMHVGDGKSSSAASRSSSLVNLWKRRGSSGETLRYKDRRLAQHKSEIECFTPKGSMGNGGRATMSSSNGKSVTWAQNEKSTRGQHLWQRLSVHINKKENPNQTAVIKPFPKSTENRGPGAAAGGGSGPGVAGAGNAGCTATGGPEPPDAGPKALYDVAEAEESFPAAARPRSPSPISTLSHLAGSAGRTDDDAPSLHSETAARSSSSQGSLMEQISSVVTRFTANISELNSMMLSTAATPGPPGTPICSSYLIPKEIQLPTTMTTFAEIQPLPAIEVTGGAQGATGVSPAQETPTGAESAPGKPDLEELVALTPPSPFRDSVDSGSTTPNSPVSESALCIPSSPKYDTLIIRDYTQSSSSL
Procedure: Radioligand Binding Assay at metabotropic glutamate receptor 5 in rat brain.
a) Membrane preparation: male Sprague Dawley rats (200-300 g, Charles River, Italy) were killed by cervical dislocation and the forebrain (cortex, striatum and hippocampus) was homogenized (2×20 sec) in 50 vols of cold 50 mM Tris buffer pH 7.4, using a Politron homogenizer (Kinematica). Homogenates were centrifuged at 48000×g for 15 min, resuspended in 50 vols of the same buffer, incubated at 37° C. for 15 min and centrifuged and resuspended two more times. The final pellets were frozen and stored at −80° C. until use.
b) Binding assay: pellets from rat forebrain were resuspended in 100 vols of 20 mM HEPES, 2 mM MgCl2, 2 mM CaCl2, pH 7.4. The membranes were incubated in a final volume of 1 ml for 60 min at 25° C. with 4 nM [^3H]MPEP in the absence or presence of competing drugs. Non-specific binding was determined in the presence of 10 μM MPEP (Spooren W. et al. Trends Pharmacol Sci. 22, 331-337, 2001). The incubation was stopped by the addition of cold Tris buffer pH 7.4 and rapid filtration through 0.5% polyethyleneimine pretreated Filtermat 1204-401 (Wallac) filters. The filters were then washed with cold buffer and the radioactivity retained on the filters was counted by liquid scintillation spectrometry. […]

| SMILES | effect on bladder volume capacity (BVC) [1] | Ki [2] |
| --- | --- | --- |
| Cc1ccc([N+](=O)[O-])c(N2CCC(=Cc3noc(-c4cccs4)n3)CC2)n1 [Example 29, 1-(6-methyl-3-nitro-2-pyridyl)-4-{[5-(2-thienyl)-1,2,4-oxadiazol-3-yl]-methylene}-piperidine] | effective in increasing the bladder volume capacity |  |
| Cc1ccc([N+](=O)[O-])c(N2CCC(=Cc3cc(-c4ccco4)n(C)n3)CC2)n1 [Example 1, 1-(6-methyl-3-nitro-2-pyridyl)-4-{[5-(2-furyl)-1-methyl-1H-pyrazol-3-yl]-methylene}-piperidine] |  | 0.37 nM |
